Measured values: publication PMC3692405, “Disease-associated mutations in CNGB3 promote cytotoxicity in photoreceptor-derived cells” (Molecular Vision, 2013)
Where two headings read alike, the source gives them in different places.

How the values were obtained:
[1] = molecular target: T1, CNGA3 plus CNGB3 T383fsX channels (Homo sapiens, UniProt Q16281); assay: Inside-out patch-clamp recording of channels expressed in Xenopus oocytes (CNGB3 T383fsX); format: biochemical
T1 construct: expressed in transfected cells; host or cells: Xenopus laevis oocytes injected with cRNA transcribed from pGEMHE constructs
T1 sequence (Q16281 1-694): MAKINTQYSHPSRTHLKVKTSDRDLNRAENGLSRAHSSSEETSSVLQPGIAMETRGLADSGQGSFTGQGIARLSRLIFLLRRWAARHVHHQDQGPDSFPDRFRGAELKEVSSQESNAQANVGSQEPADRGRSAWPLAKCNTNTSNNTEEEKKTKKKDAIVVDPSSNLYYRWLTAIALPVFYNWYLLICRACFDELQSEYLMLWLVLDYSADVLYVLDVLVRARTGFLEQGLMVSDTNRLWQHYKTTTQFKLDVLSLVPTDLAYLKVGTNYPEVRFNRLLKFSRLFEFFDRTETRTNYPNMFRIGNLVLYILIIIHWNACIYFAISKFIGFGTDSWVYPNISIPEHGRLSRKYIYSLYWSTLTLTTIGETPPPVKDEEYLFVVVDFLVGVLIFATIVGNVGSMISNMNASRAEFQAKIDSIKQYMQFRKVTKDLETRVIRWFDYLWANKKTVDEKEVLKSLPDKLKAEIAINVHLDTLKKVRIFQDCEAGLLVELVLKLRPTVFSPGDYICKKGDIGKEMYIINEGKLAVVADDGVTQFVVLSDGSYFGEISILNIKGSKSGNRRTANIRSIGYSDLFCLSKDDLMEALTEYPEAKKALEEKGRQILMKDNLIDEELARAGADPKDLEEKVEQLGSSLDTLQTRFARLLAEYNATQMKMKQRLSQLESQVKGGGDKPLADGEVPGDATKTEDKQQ
Description: (§1) For heterologous expression in Xenopus laevis oocytes, identical amounts of cDNA were linearized using SphI or NheI, and capped cRNA was transcribed in vitro using the T-7 RNA polymerase mMESSAGE mMACHINE® kit (Ambion, Austin, TX). cRNA concentrations and relative amounts were determined by denaturing gel electrophoresis and KODAK 1D image analysis software (Rochester, NY), as well as by spectrophotometry. […] Oocytes were incubated in ND96 (96 mM NaCl, 2 mM KCl, 1.8 mM CaCl2, 1 mM MgCl2, and 5 mM HEPES, pH 7.6, supplemented with 10 μg/ml gentamycin).
(§2) Two to seven days after microinjection of cRNA, patch-clamp experiments were performed using the inside-out configuration with an Axopatch 200B amplifier (Axon Instruments, Foster City, CA). Recordings were made at 20–23 °C. Data were acquired using Pulse software (HEKA Elektronik, Lambrecht, Germany). Current traces were elicited by voltage steps from a holding potential of 0 mV to +80 mV, then to −80 mV and back to 0 mV. Initial pipette resistances were 0.4–0.8 megaohms. Intracellular and extracellular solutions contained 130 mM NaCl, 0.2 mM EDTA, and 3 mM HEPES (pH 7.2). Intracellular solutions were exchanged using an RSC-160 rapid solution changer (Molecular Kinetics, Indianapolis, IN). Currents in the absence of cyclic nucleotides were subtracted. For channel activation by CPT-cGMP or CPT-cAMP, dose–response data were fitted with the Hill equation, I/Imax=([cNMP]^h/(K1/2^h + [cNMP]^h)), where I is the current amplitude at +80 mV, Imax is the maximum current elicited by saturating concentration of ligand, [cNMP] is the ligand concentration, K1/2 is the apparent ligand affinity, and h is the Hill slope. We measured sensitivity to block by L-cis-diltiazem (RBI, Natick, MA) applied to the intracellular face of the patch in the presence of 0.1 μM CPT-cGMP. Data were fit with a modified Hill equation in the form I blocker/I=(K1/2^h/(K1/2^h + [blocker]^h)). Data were analyzed using Igor (Wavemetrics, Lake Oswego, OR), SigmaPlot, and SigmaStat (Systat Software Inc., San Jose, CA). All values are reported as the mean±standard error of the mean of n experiments unless otherwise indicated. Statistical significance was determined using a Student t test or Mann–Whitney rank sum test, and a p value of <0.05 was considered significant.

[2] = molecular target: T2, CNGA3 plus CNGB3-F525N channels (Homo sapiens, UniProt Q16281+Q9NQW8, F525N); assay: Inside-out patch-clamp recording of channels expressed in Xenopus oocytes (CNGB3 F525N); format: biochemical
T2 construct: expressed in transfected cells; host or cells: Xenopus laevis oocytes injected with cRNA transcribed from pGEMHE constructs
T2 sequence (Q16281 1-694): T1 sequence (Q16281 1-694)
T2 sequence (Q9NQW8 1-809 F525N): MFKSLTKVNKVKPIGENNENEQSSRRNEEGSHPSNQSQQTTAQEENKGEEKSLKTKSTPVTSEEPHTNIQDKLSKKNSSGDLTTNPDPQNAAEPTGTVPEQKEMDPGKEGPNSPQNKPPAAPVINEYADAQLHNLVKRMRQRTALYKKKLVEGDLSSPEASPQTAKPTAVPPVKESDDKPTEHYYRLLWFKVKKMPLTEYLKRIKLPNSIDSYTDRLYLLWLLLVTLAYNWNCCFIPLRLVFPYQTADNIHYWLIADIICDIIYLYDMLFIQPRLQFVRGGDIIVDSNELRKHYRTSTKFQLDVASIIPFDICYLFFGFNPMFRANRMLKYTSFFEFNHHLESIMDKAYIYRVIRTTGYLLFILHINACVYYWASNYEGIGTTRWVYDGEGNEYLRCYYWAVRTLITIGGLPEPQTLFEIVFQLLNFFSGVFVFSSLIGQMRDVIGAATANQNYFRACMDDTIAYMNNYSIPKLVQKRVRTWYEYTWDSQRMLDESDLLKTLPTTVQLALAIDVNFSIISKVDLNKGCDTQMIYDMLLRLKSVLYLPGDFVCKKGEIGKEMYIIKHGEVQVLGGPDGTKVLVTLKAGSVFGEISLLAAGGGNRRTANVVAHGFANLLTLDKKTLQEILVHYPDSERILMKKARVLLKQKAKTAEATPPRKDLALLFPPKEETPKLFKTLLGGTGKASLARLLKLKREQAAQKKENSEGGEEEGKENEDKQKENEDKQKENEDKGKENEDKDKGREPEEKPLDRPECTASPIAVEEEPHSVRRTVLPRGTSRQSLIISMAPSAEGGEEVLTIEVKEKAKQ
Description: as §1, §2

[3] = representative patch, Figure 5A
[4] = representative patch, Figure 1B

SMILES	relative agonist efficacy Imax, CPT-cAMP/Imax, CPT-cGMP ([1]; +80 mV, CPT-cAMP 100 μM vs CPT-cGMP 4 μM, mean±SEM, n=8)	Hill slope h, CPT-cAMP activation ([1]; Hill fit, mean±SEM, n=9)	EC50 ([1]; Hill fit, mean±SEM, n=9, read-out: apparent affinity K1/2, CPT-cAMP (channel activation))	Hill slope h, CPT-cAMP, representative dose-response [1, 3]	EC50 ([1]; representative patch, Figure 5A, read-out: K1/2, cAMP, representative dose-response for CPT-cAMP activation)	relative agonist efficacy Imax, CPT-cAMP/Imax, CPT-cGMP ([2]; +80 mV, CPT-cAMP 100 μM vs CPT-cGMP 4 μM, mean±SEM, n=15)	Hill slope h, CPT-cAMP activation ([2]; Hill fit, mean±SEM, n=15)	EC50 ([2]; Hill fit, mean±SEM, n=15, read-out: apparent affinity K1/2, CPT-cAMP (channel activation))	Hill slope h, CPT-cAMP, representative dose-response [2, 3]	EC50 ([2]; representative patch, Figure 5A, read-out: K1/2,CPT-cAMP, representative dose-response)	Hill slope h, CPT-cGMP activation ([1]; +80 mV, Hill fit, mean±SEM, n=8)	EC50 ([1]; +80 mV, Hill fit, mean±SEM, n=8, read-out: apparent CPT-cGMP affinity K1/2, CPT-cGMP (channel activation))	maximum patch current density (Imax/area) ([1]; +80 mV, saturating CPT-cGMP (4 μM), mean±SEM, n=9)	Hill slope h, CPT-cGMP, representative dose-response [1, 4]	EC50 ([1]; representative patch, Figure 1B, read-out: K1/2, cGMP, representative dose-response for CPT-cGMP activation)	Hill slope h, CPT-cGMP activation ([2]; +80 mV, Hill fit, mean±SEM)	EC50 ([2]; +80 mV, Hill fit, mean±SEM, read-out: apparent CPT-cGMP affinity K1/2, CPT-cGMP (channel activation))	maximum patch current density (Imax/area) ([2]; +80 mV, saturating CPT-cGMP (4 μM), mean±SEM, n=15)	Hill slope h, CPT-cGMP, representative dose-response [2, 4]	EC50 ([2]; representative patch, Figure 1B, read-out: K1/2,CPT-cGMP, representative dose-response)
Nc1ncnc2c1nc(Sc1ccc(Cl)cc1)n2[C@@H]1O[C@@H]2COP(=O)(O)O[C@H]2[C@H]1O [CPT-cAMP, CPT-adenosine 3′,5′-cyclic monophosphate]	0.07±0.01	1.8±0.1	29.8 ± 1.9 µM	1.6	27.9 µM	0.49±0.04	1.4±0.08	13.8 ± 1.4 µM	1.0	10.8 µM										
Nc1nc2c(nc(Sc3ccc(Cl)cc3)n2[C@@H]2O[C@@H]3COP(=O)(O)O[C@H]3[C@H]2O)c(=O)[nH]1 [CPT-cGMP, 8-(4-chlorophenylthio) guanosine 3′,5′-cyclic monophosphate]											2.2±0.1	0.105 ± 0.0073 µM	86.6±17.0 pA/μm^2	1.9	0.111 µM	1.8±0.04	0.0868 ± 0.0106 µM	80.3±18.6 pA/μm^2	1.7	0.079 µM
